Test results from PMC4700456, “Receptor for detection of a Type II sex pheromone in the winter moth Operophtera brumata” (Scientific Reports, 2016).

Molecular target: T1, ObruOR1 (co-expressed with Obru\Orco) (Operophtera brumata, UniProt A0A140YWR3)
T1 construct: full-length, ObruOR1 430 aa, Obru\Orco 472 aa; pCS2+ vector, cRNAs co-injected in Xenopus laevis oocytes; with Odorant receptor co-receptor
T1 sequence (A0A140YWR3 1-430): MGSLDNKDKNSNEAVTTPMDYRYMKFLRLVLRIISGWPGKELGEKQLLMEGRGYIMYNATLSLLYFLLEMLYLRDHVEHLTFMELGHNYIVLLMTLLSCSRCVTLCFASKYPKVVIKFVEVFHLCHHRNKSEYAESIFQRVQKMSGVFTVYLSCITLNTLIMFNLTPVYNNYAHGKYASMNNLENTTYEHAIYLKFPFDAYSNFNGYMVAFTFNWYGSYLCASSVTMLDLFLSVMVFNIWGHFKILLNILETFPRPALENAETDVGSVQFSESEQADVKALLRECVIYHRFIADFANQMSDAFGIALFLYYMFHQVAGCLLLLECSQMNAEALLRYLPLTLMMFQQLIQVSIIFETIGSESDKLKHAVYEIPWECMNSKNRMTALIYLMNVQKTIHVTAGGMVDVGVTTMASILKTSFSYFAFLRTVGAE
T1 sequence (A0A140YWR4 1-472 partner): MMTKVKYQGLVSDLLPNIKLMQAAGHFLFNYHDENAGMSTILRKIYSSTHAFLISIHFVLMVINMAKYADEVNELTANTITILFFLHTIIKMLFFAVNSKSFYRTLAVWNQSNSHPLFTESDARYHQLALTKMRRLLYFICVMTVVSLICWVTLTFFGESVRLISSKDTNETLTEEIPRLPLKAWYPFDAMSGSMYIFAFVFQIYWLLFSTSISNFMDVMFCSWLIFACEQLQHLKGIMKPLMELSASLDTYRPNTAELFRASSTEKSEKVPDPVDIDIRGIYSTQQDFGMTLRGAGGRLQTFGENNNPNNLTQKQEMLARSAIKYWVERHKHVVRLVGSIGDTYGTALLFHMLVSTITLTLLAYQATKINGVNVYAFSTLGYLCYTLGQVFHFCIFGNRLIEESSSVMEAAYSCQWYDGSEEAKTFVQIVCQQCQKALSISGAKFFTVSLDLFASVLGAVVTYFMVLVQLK
Assay: two-electrode voltage clamp, Xenopus oocytes
Type: cell-based
Conditions: agonist, holding potential -80 mV, Ringer's buffer, dose-response

threshold dose: 10 nM
SMILES: C=C/C=C\C/C=C\C/C=C\CCCCCCCCC [1,3Z,6Z,9Z-19:H, (3Z,6Z,9Z)-1,3,6,9-nonadecatetraene]
